The results in this text go back to patent EP4763837A1, “PHOTOCHROMIC COMPOUND, CURABLE COMPOSITION, OPTICAL ARTICLE, LENS, AND EYEGLASSES” (TOKUYAMA CORPORATION, priority 2023, dated 2025).

Where “and” joins values, the source holds several entries; their conditions need not be identical. Identical values can stand only once.

The data set can be described thus: Photochromic property of photochromic laminate made by coating method. It is filed as physicochemical. To be noted: for Residual ratio / Color developing density at 23°C: laminate by coating method; for Residual ratio: A96/A0 x 100 after 96 hours accelerated degradation, xenon weather meter X25; for Color developing density at 23°C: absorbance difference after 240 seconds irradiation at the maximum absorption wavelength of the same line. The procedure, abridged:
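Compound at 0.25 mmol per 100 g methacrylate monomer mix, spin-coated 40 µm on a primed thiourethane lens, photocured 90 s under N2, then 110°C for 1 h. λmax and A23 measured after 240 s irradiation at 23°C; τ1/2 is time to half-fade after irradiation stops. Residual ratio A96/A0 after 96 h xenon weathering.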

Take `CCCCC1(CCC)c2ccccc2-c2c1c1c(c3cc(OC)c(N4CCOCC4)cc23)OC(c2ccc(OC)cc2)(c2ccc(OC)cc2)C=C1` (centres unmarked) [Formula (6-2)]: the “Color fading half-life at 23°C” value is 2 min; the Residual ratio is 55% and 58%.
Turning to `CCC1(C)c2ccccc2-c2c1c1c(c3cc(OC)c(N(C)c4ccccc4)cc23)OC(c2ccc(OC)cc2)(c2ccc(OC)cc2)C=C1` (centres unmarked) [Formula (9-1)], the “Color fading half-life at 23°C” value came out at 1.32 min, the Residual ratio came out at 71% and the “Color developing density at 23°C” value is on record as 1.16 -.
As for `CCCC1(CC)c2ccccc2-c2c1c1c(c3cc(OC)c(N4CCOCC4)cc23)OC(c2ccc(OC)cc2)(c2ccc(OC)cc2)C=C1` (centres unmarked) [Formula (14-1)], the “Color fading half-life at 23°C” value was found to be 1.83 min; the Residual ratio was 55% and 57%.
On to `CCCCCCC1(CC)c2ccccc2-c2c1c1c(c3cc(OC)c(N4CCOCC4)cc23)OC(c2ccc(OC)cc2)(c2ccc(OC)cc2)C=C1` (centres unmarked) [Formula (18-1)], for which the Residual ratio is 53% and 55%.
The same measure, in the same setting: the value for `CCCCCCCCCCCC1(C)c2ccccc2-c2c1c1c(c3cc(OC)c(N4CCOCC4)cc23)OC(c2ccc(OC)cc2)(c2ccc(OC)cc2)C=C1` (centres unmarked) [Formula (19-1)] was 47% and 51%.
Consider `COc1ccc(C2(c3ccc(OC)cc3)C=Cc3c4c(c5cc(N6CCOCC6)c(OC)cc5c3O2)-c2ccccc2C4(C)C)cc1` [Formula (A), reference compound], for which the Residual ratio is 47% and 50%; the “Color developing density at 23°C” value was 1.65 - and 0.83 -.
As to `CCC1(OC)c2ccccc2-c2c1c1c(c3cc(OC)c(N4CCOCC4)cc23)OC(c2ccc(OC)cc2)(c2ccc(OC)cc2)C=C1` (centres unmarked) [Formula (B), reference compound], the “Color fading half-life at 23°C” value came to 0.967 min; the Residual ratio is 37% and 41%; the “Color developing density at 23°C” value is 1.29 - and 0.70 -.
